Measurements taken from patent US20240174618A1, “SUBSTITUTED (2-HETEROARYLOXYPHENYL)SULFONATES, SALTS THEREOF AND THEIR USE AS HERBICIDAL AGENTS” (Bayer Aktiengesellschaft, priority 2021, published 2024).

How the values were obtained:
Format in all cases: in vivo
Setaria viridis (SETVI) = experiment: A. Herbicidal pre-emergence efficacy, SETVI
How it was run: (§1)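 Applied before emergence onto covering soil at rates of 1280 g/ha or less, using 600 L/ha spray water with 0.5% additive. Scoring: visual % efficacy after ~3 weeks, greenhouse.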

Stellaria media (STEME) = experiment: A. Herbicidal pre-emergence efficacy, STEME
How it was run: as §1

[1] = test system: Amaranthus retroflexus (AMARE); experiment: B. Herbicidal post-emergence efficacy, AMARE
How it was run: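 First, seeds were sown in sandy loam and grown 2 to 3 weeks under controlled greenhouse conditions. Next, foliage at the one-leaf stage received the formulated compound in water with 0.5% additive (600 L/ha, 1280 g/ha or less). Finally, damage was rated visually after about 3 weeks against untreated plants.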

[2] = test system: Amaranthus retroflexus (AMARE); experiment: C. Herbicidal pre-emergence efficacy, AMARE; conditions: scored after about 3 weeks
How it was run: (§2)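 Pre-emergence test: formulated compounds sprayed as aqueous suspension or emulsion with 0.5% additive at 600 l/ha onto soil covering sown seeds, at rates corresponding to 320 g/ha or less. After about 3 weeks in greenhouse, efficacy scored visually as percent versus untreated controls (100% = plants dead).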

[3] = test system: Digitaria sanguinalis (DIGSA); experiment: C. Herbicidal pre-emergence efficacy, DIGSA; conditions: scored after about 3 weeks
How it was run: as §2

[4] = test system: Polygonum convolvulus (POLCO); experiment: C. Herbicidal pre-emergence efficacy, POLCO; conditions: scored after about 3 weeks
How it was run: as §2

[5] = test system: Triticum aestivum (TRZAS); experiment: D. Pre-emergence effect on useful plants, TRZAS; conditions: useful plant
How it was run: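 Seeds sown in pots and covered with soil; WP or EC formulations sprayed on the soil surface as aqueous suspension/emulsion with 0.5% additive at 600 l/ha water. Plants grown in greenhouse; crop damage scored visually after about 3 weeks as % versus untreated controls (100% = dead, 0% = like control).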

[6] = test system: Abutilon theophrasti (ABUTH); experiment: E. Herbicidal post-emergence efficacy, ABUTH
How it was run: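 Compounds applied at 320 g/ha or less as a foliar spray (600 l/ha, 0.5% additive) to one-leaf-stage greenhouse plants grown in sandy loam. Damage is visually scored in percent relative to untreated plants after about 3 weeks.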

SMILES | Pre-emergence efficacy against SETVI (Setaria viridis (SETVI); dosage 320 g/ha) | Pre-emergence efficacy against SETVI (Setaria viridis (SETVI); dosage 1280 g/ha) | Pre-emergence efficacy against STEME (Stellaria media (STEME); dosage 320 g/ha) | Pre-emergence efficacy against STEME (Stellaria media (STEME); dosage 1280 g/ha) | Post-emergence efficacy against AMARE ([1]; 80 g/ha) | Post-emergence efficacy against AMARE ([1]; 320 g/ha) | Post-emergence efficacy against AMARE ([1]; 1280 g/ha) | Pre-emergence efficacy against AMARE ([2]; 80 g/ha) | Pre-emergence efficacy against AMARE ([2]; 320 g/ha) | Pre-emergence efficacy against DIGSA ([3]; 80 g/ha) | Pre-emergence efficacy against DIGSA ([3]; 320 g/ha) | Pre-emergence efficacy against POLCO ([4]; 80 g/ha) | Pre-emergence efficacy against POLCO ([4]; 320 g/ha) | Pre-emergence efficacy against TRZAS in % ([5]; application rate 80 g/ha) | Pre-emergence efficacy against TRZAS in % ([5]; application rate 320 g/ha) | Post-emergence efficacy against ABUTH in % ([6]; application rate 320 g/ha) | Post-emergence efficacy against ABUTH in % ([6]; application rate 80 g/ha) | Pre-emergence efficacy against SETVI (Setaria viridis (SETVI); dosage 80 g/ha) | Pre-emergence efficacy against STEME (Stellaria media (STEME); dosage 80 g/ha)
CC(C)CCS(=O)(=O)Oc1ccccc1Oc1ncc(Cl)cn1 [Example I-25] | 100% | 100% | 90% | 100% | 90% | 100% | 100% | 100% | 100% | 100% | 100% | 80% | 90% | 0% | 0% | 80% | – | – | –
O=S(=O)(CCC(F)(F)F)Oc1c(Cl)cccc1Oc1ncc(Br)cn1 [Example I-32] | 90% | 100% | 90% | 90% | 100% | 100% | 100% | 100% | 100% | – | 100% | – | 100% | 0% | 10% | 80% | 80% | – | –
O=S(=O)(CCCC(F)(F)F)Oc1c(Cl)cccc1Oc1ncc(Br)cn1 [Example I-34] | 90% | 100% | 90% | 90% | 100% | 100% | 100% | 100% | 100% | 90% | 100% | – | 100% | 0% | 0% | 80% | 80% | 90% | –
O=S(=O)(CCC(F)(F)F)Oc1c(Cl)cccc1Oc1ncc(Cl)cn1 [Example I-38] | 100% | 100% | 100% | 100% | – | – | 90% | 100% | 100% | 100% | 100% | 100% | 100% | 0% | – | 100% | – | 90% | 100%
O=S(=O)(CCCC(F)(F)F)Oc1c(F)cccc1Oc1ncc(Br)cn1 [Example I-41] | 100% | 100% | 100% | 100% | – | 90% | 90% | 100% | 100% | 100% | 100% | 100% | 100% | 20% | – | 100% | 90% | 100% | 100%
O=S(=O)(CCC1CC1)Oc1c(F)cccc1Oc1ncc(Cl)cn1 [Example I-55] | 100% | 100% | 100% | 100% | 90% | 90% | 90% | 100% | 100% | 100% | 100% | 90% | 90% | 0% | – | 100% | – | 100% | –
O=S(=O)(CCCC(F)(F)C(F)(F)F)Oc1c(F)cccc1Oc1ncc(Cl)cn1 [Example I-68] | 100% | 100% | 100% | 100% | 100% | 100% | 100% | 100% | 100% | 100% | 100% | 90% | 90% | 0% | 10% | 90% | – | 90% | –
O=S(=O)(CCC(F)=C(F)F)Oc1c(Cl)cccc1Oc1ncc(Cl)cn1 [Example I-73] | 90% | 100% | 100% | 100% | 100% | 100% | 100% | 90% | 100% | – | 100% | – | 90% | 0% | 20% | 80% | – | – | –
Cc1cccc(Oc2ncc(Cl)cn2)c1OS(=O)(=O)CC1CC(F)(F)C1 [Example I-74] | 90% | 100% | 90% | 100% | 100% | 100% | 100% | 90% | 100% | 100% | 100% | – | 90% | 0% | – | 90% | – | – | –
